Experiments:
[1] = system: E. coli 1527; experiment: MIC against the primary screening panel (broth microdilution); type: cell-based, Escherichia coli; set-up: key: A: a MIC value measurement that is the same as that observed for polymyxin B; a MIC value measured that is lower than the comparable value observed for polymxin B; a MIC value measured that is higher than the comparable value observed for polymyxin B; conditions: relative to polymyxin B
Protocol: (§1) Antibacterial potency can be assessed by broth microdilution according to CLSI guidelines, plates can be incubated at 37° C., and aeration (rotation at 200 rpm) can be employed. In some assays, surfactant (Survanta, Abbott Laboratories) can be added to give a final concentration of 1, 10 and 40% in caMHB. Native polymyxin A, polymyxin B and the comparator compound of Formula II (polymyxin B decapeptide with an o-chlorophenyl urea tail) were included for comparison.

[2] = system: K. pneumoniae 933; experiment: as above; type: cell-based, Klebsiella pneumoniae; set-up: key: A: a MIC value measurement that is the same as that observed for polymyxin B; a MIC value measured that is lower than the comparable value observed for polymxin B; a MIC value measured that is higher than the comparable value observed for polymyxin B; conditions: relative to polymyxin B
Protocol: as §1

[3] = system: P. aeruginosa 44; experiment: as above; type: cell-based, Pseudomonas aeruginosa; set-up: key: A: a MIC value measurement that is the same as that observed for polymyxin B; a MIC value measured that is lower than the comparable value observed for polymxin B; a MIC value measured that is higher than the comparable value observed for polymyxin B; conditions: relative to polymyxin B
Protocol: as §1

[4] = system: A. baumannii 1570; experiment: as above; type: cell-based, Acinetobacter baumannii; set-up: key: A: a MIC value measurement that is the same as that observed for polymyxin B; a MIC value measured that is lower than the comparable value observed for polymxin B; a MIC value measured that is higher than the comparable value observed for polymyxin B; conditions: relative to polymyxin B
Protocol: as §1

[5] = system: E. coli; experiment: MIC50/90 against small panels (n = 35); type: cell-based, Escherichia coli; set-up: key: A: a MIC value measurement that is the same as that observed for polymyxin B; a MIC value measured that is lower than the comparable value observed for polymxin B; a MIC value measured that is higher than the comparable value observed for polymyxin B; conditions: small panel n = 35, relative to polymyxin B
Protocol: as §1

[6] = system: K. pneumoniae; experiment: MIC50/90 against small panels (n = 35); type: cell-based, Klebsiella pneumoniae; set-up: key: A: a MIC value measurement that is the same as that observed for polymyxin B; a MIC value measured that is lower than the comparable value observed for polymxin B; a MIC value measured that is higher than the comparable value observed for polymyxin B; conditions: small panel n = 35, relative to polymyxin B
Protocol: as §1

[7] = system: P. aeruginosa; experiment: MIC50/90 against small panels (n = 35); type: cell-based, Pseudomonas aeruginosa; set-up: key: A: a MIC value measurement that is the same as that observed for polymyxin B; a MIC value measured that is lower than the comparable value observed for polymxin B; a MIC value measured that is higher than the comparable value observed for polymyxin B; conditions: small panel n = 35, relative to polymyxin B
Protocol: as §1

[8] = system: A. baumannii; experiment: MIC50/90 against small panels (n = 35); type: cell-based, Acinetobacter baumannii; set-up: key: A: a MIC value measurement that is the same as that observed for polymyxin B; a MIC value measured that is lower than the comparable value observed for polymxin B; a MIC value measured that is higher than the comparable value observed for polymyxin B; conditions: small panel n = 35, relative to polymyxin B
Protocol: as §1

[9] = system: P. aeruginosa #44; experiment: MICs for P. aeruginosa #44 in the presence of surfactant; type: cell-based, Pseudomonas aeruginosa; set-up: key: A: a MIC value measurement that is the same as that observed for polymyxin B; a MIC value measured that is lower than the comparable value observed for polymxin B; a MIC value measured that is higher than the comparable value observed for polymyxin B; conditions: relative to polymyxin B
Protocol: as §1

[10] = system: P. aeru; experiment: MIC50 and MIC90, CLSI broth microdilution, panel of Gram negative strains; type: cell-based, Pseudomonas aeruginosa; set-up: key: A: a measured MIC value equal to that of polymyxin B; a measured MIC value less than the corresponding MIC value measured for polymyxin B; a measured MIC value greater than the corresponding MIC value measured for polymyxin B; conditions: relative to polymyxin B; some strains multi-drug resistant
Protocol: (§2) MIC testing can be performed according to Clinical and Laboratory Standards Institute (CLSI) M7-A7 (2006) broth microdilution methods. Unless otherwise indicated, MIC values are provided in units of micrograms per milliliter.
(§3) One day prior to testing, individual colonies were isolated by streaking onto rich, non-selective Tryptic Soy agar with 5% lysed sheeps blood (TSAB) with incubation at 35-37° C. for 18-24 hours.
(§4) Cultures were prepared by touching 3-5 colonies into 3 mL of cation-adjusted Mueller Hinton Broth (caMHB) in a 14-mL tube (caMHB was prepared and sterilized according to manufacturer's specifications).
(§5) OD600 of growing cultures was measured and adjusted to approximately 10^5 colony forming units per mL (CFU/mL) in caMHB for MIC inoculation (approximately OD600 0.001).
(§6) Diluted cultures were used to inoculate 50 μL per well in broth microdilution assays (final volume 100 μl per well; compounds were prepared in two-fold dilutions).
(§7) Plates were incubated 16-20 hours at 37° C., with shaking at 200 rpm.
(§8) OD600 was determined for all wells. Growth was defined as OD600>0.1. MICs were defined as the lowest concentration producing no visible turbidity (OD600<0.1).

[11] = system: E. coli; experiment: as above; type: cell-based, Escherichia coli; set-up: key: A: a measured MIC value equal to that of polymyxin B; a measured MIC value less than the corresponding MIC value measured for polymyxin B; a measured MIC value greater than the corresponding MIC value measured for polymyxin B; conditions: relative to polymyxin B; some strains multi-drug resistant
Protocol: as §2, §3, §4, §5, §6, §7, §8

[12] = system: K. pneu; experiment: as above; type: cell-based, Klebsiella pneumoniae; set-up: key: A: a measured MIC value equal to that of polymyxin B; a measured MIC value less than the corresponding MIC value measured for polymyxin B; a measured MIC value greater than the corresponding MIC value measured for polymyxin B; conditions: relative to polymyxin B; some strains multi-drug resistant
Protocol: as §2, §3, §4, §5, §6, §7, §8

[13] = system: A. baum; experiment: as above; type: cell-based, Acinetobacter baumannii; set-up: key: A: a measured MIC value equal to that of polymyxin B; a measured MIC value less than the corresponding MIC value measured for polymyxin B; a measured MIC value greater than the corresponding MIC value measured for polymyxin B; conditions: relative to polymyxin B; some strains multi-drug resistant
Protocol: as §2, §3, §4, §5, §6, §7, §8

[14] = system: P. aeruginosa #44; experiment: MIC against P. aeruginosa #44 in polystyrene plate; type: cell-based, Pseudomonas aeruginosa; conditions: range of repeated tests
Protocol: P. aeruginosa #44 were grown in cation adjusted Mueller Hinton Broth (caMHB) (catalog#B12322; Fisher Scientific, Pittsburgh, Pa.) at 37° C. MIC testing was performed according to Clinical and Laboratory Standards Institute [CLSI, formerly National Committee for Clinical Laboratory Standards (NCCLS), Wayne, Pa.] guidelines for broth microdilution. […]

[15] = system: P. aeruginosa 44; experiment: Neutropenic mouse lung infection model; type: in vivo
Protocol: Compound of Formula (Ia) was tested in a murine thigh model. For the thigh model, female CD-1 mice were rendered neutropenic by IP injection on days −4 and −1 with 150 and 100 mg/kg cyclophosphamide, respectively. On day 0 mice were infected with 1×10^7 colony-forming units (cfu) of A. baumannii 1570 in one thigh muscle, and then administered compound SC in a dose ranging from 2 to 12 mg/kg at 1 and 6 hours post-infection.
The mouse lung model was run in the same manner as the thigh infection model, except that mice were infected IN with 1×10^7 cfu of P. aeruginosa 44 on day 0. Doses administered in the lung study ranged from 8 to 20 mg/kg. The ED−3log10 was based on cfu determination from the lung tissue 24 hours post-infection.

[16] = Acute toxicity testing in rats; type: in vivo, Sprague-Dawley rat; conditions: 1 mg/kg i.v.
Protocol: One female Sprague-Dawley rat was administered a 1 mg/kg dose of the test Compound 5. Clinical observations were taken immediately following the administration of compound and at 0.5, 1, 2 and 4 hours post-dose.

[17] = system: Gram negative bacterial strains; experiment: Potency and spectrum against a panel of Gram negative bacterial strains; type: cell-based
Description: The potency and spectrum of Compound 5 was studied using a panel of Gram negative bacterial strains.
as §2

Structure (SMILES): CC(C)C[C@H]1NC(=O)[C@H](CCN)NC(=O)[C@@H](NC(=O)[C@@H](CCN)NC(=O)[C@@H](NC(=O)[C@H](CCN)NC(=O)[C@H]2C[C@@H]2c2ccccc2)C(C)O)CCNC(=O)[C@H](C(C)O)NC(=O)[C@H](CCN)NC(=O)[C@H](CCN)NC(=O)[C@H](C(C)O)NC1=O (single isomer, unassigned) [Compound 5]
- MIC E. coli 1527 [1]: A
- MIC K. pneumoniae 933 [2]: C
- MIC P. aeruginosa 44 [3]: C
- MIC A. baumannii 1570 [4]: C
- E. coli MIC50 [5]: C
- E. coli MIC90 [5]: A
- K. pneumoniae MIC50 [6]: C
- K. pneumoniae MIC90 [6]: C
- P. aeruginosa MIC50 [7]: A
- P. aeruginosa MIC90 [7]: C
- A. baumannii MIC50 [8]: C
- A. baumannii MIC90 [8]: C
- MIC P. aeruginosa #44, 0% surfactant ([9]; 0% surfactant): C
- MIC P. aeruginosa #44, 10% surfactant ([9]; 10% surfactant): B
- MIC P. aeruginosa #44, 40% surfactant ([9]; 40% surfactant): B
- P. aeru MIC 50 [10]: A
- P. aeru MIC 90 [10]: C
- E. coli MIC50 [11]: C
- E. coli MIC90 [11]: A
- K. pneu MIC 50 [12]: C
- K. pneu MIC 90 [12]: C
- A. baum MIC 50 [13]: C
- A. baum MIC 90 [13]: C
- MIC against P. aeruginosa #44 In polystyrene plate [14]: 1-2 micrograms/ml
- Lungs cleared within one log10 of limit of detection ([15]; 8 through 20 mg/kg dose levels): Lungs cleared within one log10 of limit of detection
- ED−3log10 ([15]; neutropenic mouse lung, P. aeruginosa 44, SC, BID×1 d, cfu 24 hours post-infection): 6.35 mg/kg
- time by which rat had no clinical signs ([16]; 1 female Sprague-Dawley rat): ≤ 1 h
- Acute (anaphylactoid) observations ([16]; female Sprague-Dawley rat): anaphylactoid response was observed
- activity against E. coli, K. pneumonia, P. Aeruginosa and A. baumanni isolates [17]: active
- activity against multi-drug resistant strains [17]: active against multi-drug resistant strains
